Laboratory results reported in publication PMC6085350, “Small molecule inhibitors of RAS-effector protein interactions derived using an intracellular antibody fragment” (Nature Communications, 2018).
Converted amounts (≈) assume the structure as drawn. One block for each compound: values may come before it.

Tests used:
[1] = system: HT1080 cells (NRAS^Q61K); assay: Cell viability (CellTiterGlo), HT1080; format: cell-based, human; details: HT1080, 0–20 μM, up to 72 h
Procedure: (§1) Fig. 5 Abd-7 results on RAS-dependent signalling pathways and cell viability. a, b DLD-1 (a) or H358 (b) cells were serum-starved for 24 h, incubated in mono-layer with Abd-7 in a range from 2, 5, 10 and 20 μM for 3 h and stimulated with EGF 10 min. Proteins were extracted and separated by SDS-PAGE and transferred to membranes for Western analysis with anti-pAKT, anti-pERK, anti-pan AKT and anti-pan ERK. Anti-cyclophilin B antibody was the loading control. Signal was developed using standard ECL. c–e Effects of compounds Abd-2, Abd-4, Abd-5, Abd-6, and Abd-7 on the viability of human cancer cells lines was assessed for a 2-D culture of DLD-1 (mutant KRAS^G13D) cells and HT1080 cells (mutant NRAS^Q61K). The cells were treated with a dose range from 0 μM to 20 μ and incubated for 72 h when cell viability was assessed using CellTitreGlo. […] Each experiment was repeated at least three times (a, b) and four times (c, d). Where error bars are presented, they correspond to mean values ± SD of biological repeats […]
(§2) Cancer cell lines were in seeded in ViewPlates-96 microplates (PerkinElmer). DLD-1 cells were plated at 10,000 cells per well and HT1080 cells at 7500 cells per well and cultured in DMEM, high glucose, GlutaMAX media containing 10% FBS at 37 °C in 5% CO2 atmosphere. Cells were cultured overnight and the compounds (dissolved in DMSO and diluted to 0.2% DMSO) were added to the cells at concentrations ranging from 0 to 20 μM. The cells were incubated under standard culture conditions for either 24, 48 or 72 h. Cell viability was as quantitated using the CellTiterGlo Luminescent Cell Viability Assay (Promega) according to the manufacturer’s instructions to measure ATP generated by metabolically active cells. Luminescent signals were measured using an Envision 2103 Multilabel Microplate Reader (PerkinElmer). The luminescence signals obtained from the compound-treated cells were normalized against the signal for DMSO-only treated cells. The IC50 values, calculated from the 48 and 72 h CellTiterGlo data, were generated by non-linear regression using the software GraphPad Prism 7.00 for windows (GraphPad Inc).
(§3) Supplementary Figure 7: The effect of Abd compounds on the viability of cancer cells The effect of the chemical series on the viability of human cancer cells lines DLD -1 (a colorectal cancer cell line with mutant KRAS
(§4) ) and HT1080 (a fibrosarcoma cell line with
(§5) ). The cells were treated with a dose range from […] of either
(§6) Abd-2, Abd-4, Abd-5, Abd-6 and Abd-7 and incubated for 24 or 48 hours. Cell viability was assessed using CellTitreGlo . In each case, the data are normalized to cells treated with DMSO only. Panels a and b are DLD-1 viability and panels c and d are HT1080 viability.
(§7) The IC50 for Abd-7 at 48 & 72 […]
(§8) hours are shown in panel f. Each experiment was repeated at least four times ( a to d).
(§9) Where error bars are presented, they correspond to mean values ± SD of biological repeats.
(§10) (1 picture or pasted object on this page, not shown here)

[2] = system: RAS-effector PPI; assay: RAS biosensor BRET assay (partners not specified); format: cell-based, human
Procedure: The BRET assay was carried out as described elsewhere. A total of 650,000 HEK293T were seeded in each well of a six well plate. Approximately, 24 h later, cells were transfected with an appropriated BRET-based RAS biosensor (i.e. RAS-effector) using Lipofectamine 2000 transfection reagent (Thermo-Fisher). Cells were detached 24 h later and washed with PBS and seeded in a white 96 well plate (clear bottom, PerkinElmer, cat#6005181) in OptiMEM no phenol red medium (Life Technologies) complemented with 4% FBS. Cells were left for 4 h at 37 °C before adding compounds. […] The final concentrations in the cells were 0, 5, 10 and 20 μM (therefore the intermediate 10X concentrations were 0, 50, 100 and 200 μM. Furthermore, 10 μl of 10X compounds were added in each well of the 96 well plate to 0, 5, 10 and 20 μM final concentrations (with final 0.2% DMSO each). Quadruplicates were performed for each point. Cells were left for an additional 20 h at 37 °C before the BRET2 signal reading directly after addition of Coelenterazine 400a substrate (10 μM final) to cells (Cayman Chemicals, cat#16157). BRET2 reading was carried out on an Envision instrument (2103 Multilabel Reader, PerkinElmer) with the BRET2 Dual Emission optical module (515 nm ± 30 and 410 nm ± 80; PerkinElmer).

[3] = system: DLD-1 cells (KRAS^G13D); assay: Cell viability (CellTiterGlo), DLD-1; format: cell-based, human; details: DLD-1, 0–20 μM, up to 72 h
Procedure: as §1, §2, §3, §4, §5, §6, §7, §8, §9, §10

[4] = molecular target: T1, KRAS^G12V-GppNHp (Homo sapiens, UniProt P01116, G12V); assay: SPR binding to KRAS G12V-GppNHp; details: 100 μM, run in triplicate
T1 construct: made in house; host or cells: E. coli (pGEX-2T; strain named only for the HRAS plasmids)
Procedure: A BIAcore T100 (GE Healthcare) was used to screen the fragment library for RAS binders. A polyclonal goat anti-GST antibody (GE Healthcare) was immobilized on a CM5 sensor chip (GE Healthcare) by the amine coupling method. To immobilize the antibody on CM5 chip, the chip was first activated by injecting 100 µl mixture of 0.2 M EDC (N-ethyl-N-(dimethylaminopropyl) carbodiimide hydrochloride) and 0.05 M NHS (N-hydroxysuccinimide) at 10 µl/min flow rate. Furthermore, 100 µg/ml anti-GST antibody in 10 mM sodium acetate, pH 5.0 was injected at 5 µl/min for 900 s and immobilized until 20,000 ~ 25,000 RU. After immobilization the chip was immediately inactivated by injecting 1 M ethanolamine, pH 8.5 at 10 µl/min for 600 s. The chip was kept running in the HBS buffer (GE Healthcare) comprising 10 mM HEPES, pH 8.0, 150 mM NaCl. Of all, 5 µg/ml recombinant GST, GST-HRAS^G12V-GTPγS or GST-HRAS^G12V-GDP proteins were injected into flow cell Fc4, Fc2 and Fc3, respectively for trapping through the immobilized anti-GST antibody. The GST-HRAS^G12V-GTPγS, GST-KRAS^G12V-GppNHpp, or GST-HRAS^G12V-GDP proteins were injected at 5 µl/min for 900 s and usually reached approximately 2000–2500 RU. The GST was injected at same flow rate until about 1200–1350 RU which is 0.54 times less than the GST-HRAS^G12V-GTPγS or GST-HRAS-GDP capture amounts, taking into consideration relative molecular weights (GST, 26KDa, GST-RAS, 48KDa, respectively). Before fragment library screening, the running buffer was replaced by 20 mM Tris, pH 8, 150 mM NaCl, 5 mM MgCl2, 5% DMSO. DMSO solvent correction curves were generated by injecting the running buffers with serial concentrations of DMSO ranging from 4.5 to 6%. […] The individual compounds were injected at 30 µl for 60 s at 30 µl/min flow rate over flow cells Fc1, Fc2, Fc3 and Fc4. The captured GST and GST-RAS were removed from the chip by rinsing with 40 µl 10 mM glycine-HCl, pH 2.1 at 20 µl/min flow rate after every 48 compounds sequential injection. The chip was regenerated by injecting new GST and GST-RAS proteins as described above.

[5] = molecular target: T2, GST-HRAS^G12V-GTPγS (Homo sapiens, UniProt P01112, G12V); assay: SPR binding to immobilized GST-HRAS G12V-GTPγS
T2 construct: expression of HRAS (1-166) HRAS^G12V or KRAS^G12V cDNA cloned into the pGEX-2T vector; made in house; host or cells: E. coli C41(DE3)
Procedure: (§11) A BIAcore T100 (GE Healthcare) was used to screen the fragment library for RAS binders. A polyclonal goat anti-GST antibody (GE Healthcare) was immobilized on a CM5 sensor chip (GE Healthcare) by the amine coupling method. To immobilize the antibody on CM5 chip, the chip was first activated by injecting 100 µl mixture of 0.2 M EDC (N-ethyl-N-(dimethylaminopropyl) carbodiimide hydrochloride) and 0.05 M NHS (N-hydroxysuccinimide) at 10 µl/min flow rate. Furthermore, 100 µg/ml anti-GST antibody in 10 mM sodium acetate, pH 5.0 was injected at 5 µl/min for 900 s and immobilized until 20,000 ~ 25,000 RU. After immobilization the chip was immediately inactivated by injecting 1 M ethanolamine, pH 8.5 at 10 µl/min for 600 s. The chip was kept running in the HBS buffer (GE Healthcare) comprising 10 mM HEPES, pH 8.0, 150 mM NaCl. Of all, 5 µg/ml recombinant GST, GST-HRAS^G12V-GTPγS or GST-HRAS^G12V-GDP proteins were injected into flow cell Fc4, Fc2 and Fc3, respectively for trapping through the immobilized anti-GST antibody. The GST-HRAS^G12V-GTPγS, GST-KRAS^G12V-GppNHpp, or GST-HRAS^G12V-GDP proteins were injected at 5 µl/min for 900 s and usually reached approximately 2000–2500 RU. […]
The corresponding kinetic […], were determined using steady-state analysis of the compounds’ binding affinities, assuming 1:1 ligand-protein stoichiometry. […]

[6] = molecular target: T3, GST-HRAS^G12V-GTPγS-anti-RAS single chain Fv (scFv) (Homo sapiens, UniProt P01112, G12V); assay: Competitive SPR (cSPR) with anti-RAS scFv bound to HRAS; format: binding; details: 3 to 2000 μM range
T3 construct: expression of HRAS (1-166) HRAS^G12V or KRAS^G12V cDNA cloned into the pGEX-2T vector; made in house; host or cells: E. coli C41(DE3)
Procedure: For competitive SPR (cSPR) assays between anti-RAS scFv and candidate fragment binder, after immobilizing anti-GST polyclonal antibody was immobilized on CM5 sensor chip as described above, then 5 µg/ml GST-HRAS-GTPγS protein was injected at 5 µl/min for 900 s to flow cells Fc2 and 4 and 5 µg/ml GST-HRAS-GDP to Fc3. Following GST-HRAS capture on the flow cells, 5 µg/ml anti-RAS scFv Y6-204 was injected at 5 µl/min for 900 s only to Fc4 until reaching an additional 1500–1800 RU, which is theoretically when all GST-HRAS-GTPγS should be bound to anti-RAS scFv with 1:1 interaction stoichiometry. After completing anti-RAS scFv injection, the sensograms were confirmed to be stable (i.e. anti-RAS scFv was not dissociated from GST-HRAS-GTPγS on Fc4). […]

[7] = Solubility; format: physicochemical
[8] = molecular target: T4, GST-HRAS^G12V-GDP (Homo sapiens, UniProt P01112, G12V); assay: SPR binding to GDP-bound HRAS; details: 3 to 2000 μM range
T4 construct: expression of HRAS (1-166) HRAS^G12V or KRAS^G12V cDNA cloned into the pGEX-2T vector; made in house; host or cells: E. coli C41(DE3)
Procedure: as §11

SMILES: CN(C)CCOc1ccc(C(=O)NCC2COc3ccccc3O2)cc1 (centres unmarked) [Abd-4]
effect on cell viability [1]: no effect on cell viability
activity in the RAS biosensor BRET assay [2]: do not show activity
effect on cell viability [3]: no effect on cell viability

SMILES: O=C(NC[C@@H]1COc2ccccc2O1)c1ccco1 [Abd-2b]
binding to KRAS^G12V-GppNHp (SPR) [4]: bind

SMILES: O=C(Nc1ccc2ccccc2n1)c1ccco1 [Abd-1, N-(2-quinolinyl)-2-furamide]
binding to GST-HRAS^G12V-GTPγS (SPR dose response) ([5]; 3 to 2000 μM range): bound and bind
Kd ([5]; SPR, estimated, single experimental analysis): > 370 µM
binding to HRAS^G12V in complex with anti-RAS scFv (cSPR) [6]: no binding
solubility [7]: 140 µM (≈ 33.4 µg/mL)
binding to GDP-bound form of HRAS (SPR) [8]: no binding

More lines, now with the values ahead:

binding to KRAS^G12V-GppNHp (SPR) [4]: bind
SMILES: O=C(NC[C@H]1COc2ccccc2O1)c1ccco1 [Abd-2a]

binding to KRAS^G12V-GppNHp (SPR) [4]: lower affinity than Abd-2
SMILES: NCC1COc2cc(Cl)ccc2O1 (centres unmarked) [Abd-3]
